Patent publication US20170246144A1, “METHOD OF PREVENTING OR TREATING SPINOCEREBELLAR ATAXIA BY ADMINISTRATING SILIBININ” (National Taiwan Normal University, priority 2016, published 2017)

Legend:
SH-SY5Y cells [1] = experiment: JC-1 flow cytometry of mitochondria membrane potential (MMP); type: cell-based, Human; details: 15 μM + 100 mM MSG
Procedure: FIGS. 7A and 7B show the effects of SB on mitochondria membrane potential (MMP) in SH-SY5Y cells treated with MSG measured by JC-1 staining with a flow cytometry, wherein the control group (Ctrl) was untreated SH-SY5Y cells or the cells were treated with 100 mM MSG, 100 mM MSG+15 μM SB, 100 mM MSG+10 μM MK801 (MK) or 5 μM CCCP (disruptor of electron transport chain) for 12 hours. […] The results were shown as mean±SEM, n=3, *p<0.05, comparing to the MSG treatment group.
In the present embodiment, flow cytometry analysis was used to investigate whether silibinin can prevent the reduction of mitochondria membrane potential induced by glutamate in SH-SY5Y cells.
SH-SY5Y cells were seeded in 6 centimeter dish (1×10^6 cells/plate) for 24 hours, and then were pre-treated with 15 μM silibinin or 10 μM MK-801 for 1 hour followed by the treatment of 100 mM MSG for 12 hours. 5 μM carbonyl cyanide m-chlorophenylhydrazone (CCCP) was added to the positive control group to induce the depolarization of mitochondria membrane potential.
The treated cells were washed, centrifuged and collected, followed by PBS wash and JC-1 dye staining for 30 minutes. The stained cells were re-suspended using phosphate buffer solution and analyzed by a flow cytometry to obtain a 2-dimensional scatter plot. 10,000 cells were recorded for each experiment.

SH-SY5Y cells [2] = experiment: Annexin V-FITC/PI flow cytometry, apoptosis induced by MSG; type: cell-based, Human; details: 15 μM, 100 mM MSG, 24 hours
Procedure: 1×10^6 SH-SY5Y cells were treated with 100 mM MSG and 15 μM SB or 10 μM MK801 (MK) for 24 hours. Cells were stained with Annexin-V/PI and the apoptosis was measured with a flow cytometry.
In order to detect the effects of silibinin in inhibiting the apoptosis induced by glutamate in SH-SY5Y cells. The cells were measured by flow cytometry using Annexin V-FITC/propidium iodide (PI) double-labeling method.
SH-SY5Y cells were seeded in dish and were treated with 100 mM MSG in combination of 15 μM silibinin or 10 μM MK801 for 24 hours. The cells were then trypsinized and collected by centrifugation at 2,000 rpm for […] followed by double-staining with Annexin V-FITC and PI. Stained cells were analyzed with a flow cytometry (FACS Sorter, Becton, Dickinson and Company). 10,000 cells were recorded in each experiment.

nTBP/Q79-EGFP cells [3] = experiment: MTT viability of Dox-induced nTBP/Q79-EGFP cells; type: cell-based, Human; details: 15 μM, Dox induction 5 days
Procedure: FIGS. 8A-8C show the effects of SB on improving the viability of nTBP/Q79-EGFP cells and inhibiting the expression levels of cleaved caspase-9, cleaved caspase-3, and cleaved PARP in nTBP/Q79-EGFP cells induced by doxycycline (Dox). FIG. 8A: The viabilities of 1.0×10^6 nTBP/Q36-EGFP cells and nTBP/Q79-EGFP cells which were pretreated with 15 μM SB for 1 hour followed by the induction of Dox for 1, 3, and 5 days were measured by MTT assay. FIG. 8B: 1.0×10^6 nTBP/Q36-EGFP cells and nTBP/Q79-EGFP cells were pretreated with 15 μM SB for 1 hour followed by the induction of Dox for 5 days. The levels of cleaved caspase-9, cleaved caspase-3, and cleaved PARP were detected by western blotting. Actin was used as a loading control. […] The results were shown as mean±SD, n=3, *p<0.05, comparing to the Dox group.
Human neuroblastoma SH-SY5Y cell line was obtained from American Type Culture Collection (ATCC). nTBP/Q36-EGFP cells (poly-Q of TATA-binding protein contains 36 glutamines in SH-SY5Y cells) and nTBP/Q79-EGFP cells (poly-Q of TATA-binding protein contains 79 glutamines in SH-SY5Y cells) were kindly supplied by Dr. Guey-Jen Lee-Chen, National Taiwan Normal University (NTNU). […]
The cell viability was measured using MTT colorimetric assay as mentioned previously. […]

nTBP/Q79-EGFP cells [4] = experiment: Dot blot and western blotting of protein aggregation, anti-TBP (N12); type: cell-based, Human; details: 15 μM, Dox 5 days
Procedure: FIGS. 9A-9C show the effects of SB on protein aggregation in nTBP/Q79-EGFP cells after the induction of Dox, which were analyzed by western blotting and dot blot assays. 1.0×10^6 nTBP/Q36-EGFP cells or nTBP/Q79-EGFP cells were pretreated with 15 μM SB for 1 hour followed by the treatment of 10 μg/mL Dox. Cell lysates were analyzed using western blotting and dot blot assays with anti-TBP (N12) antibody. […] The values represent means±SD. Data were the mean values of three independent experiments.
In the present example, dot blot and western blotting methods were used to analyze whether silibinin can reduce the protein aggregation in nTBP/Q79-EGFP cells induced by Dox.
nTBP/Q36-EGFP cells and nTBP/Q79-EGFP cells were cultured in 6 cm petri-dish for 24 hours followed by the treatment of 15 μM silibinin for 1 hour and the treatment of […] and 10 μM RA for 5 days. The proteins were extracted from the treated cells and analyzed by dot blot and western blotting, wherein the primary antibody is TBP(N-12) antibody and the secondary antibody is HRP conjugated anti-rabbit antibody.

SH-SY5Y cells [5] = experiment: MTT cytotoxicity of silibinin toward SH-SY5Y cells; type: cell-based; details: Homo sapiens, 24 hours, read-out: cyto-toxicity toward SH-SY5Y cells, IC50
From the text: FIGS. 1A and 1B show the effects of silibinin (SB) in reducing the death of SH-SY5Y cell induced by mono-sodium glutamate (MSG). […] Data were the mean values of three independent experiments. Ctrl: control group.
In order to monitor the cyto-toxicity of silibinin and its ability in resisting glutamatergic excitotoxicity, MTT colorimetric assay was used to measure the cell viability rate of neuroblastoma SH-SY5Y cells which were pre-treated with silibinin and mono-sodium glutamate (MSG).
After the treatment, 0.5 mg/mL MTT was added to the culture media, and the cells were incubated for 3 hours at 37° C. 100 μL lysis solution (10% sodium dodecyl sulfate (SDS) and 0.01N HCl) was added and the absorbance of the media was read at OD570. The percentage of cell viability was calculated as follows:
Cell viability (%)=(OD570 of experimental well/OD570 of control well)×100%

COc1cc(C2Oc3cc([C@H]4Oc5cc(O)cc(O)c5C(=O)[C@@H]4O)ccc3OC2CO)ccc1O (stereo partly drawn) [silibinin]
MMP compared to Ctrl (SH-SY5Y cells [1]): 85+13% | apoptosis (apoptotic cells) (SH-SY5Y cells [2]): 9.04% | increase of cell viability of nTBP/Q79-EGFP cells (nTBP/Q79-EGFP cells [3]): approximately 20% | reduction of protein aggregation, dot blot (nTBP/Q79-EGFP cells [4]): 67% | reduction of protein aggregation, western blotting (nTBP/Q79-EGFP cells [4]): 90% | IC50 (SH-SY5Y cells [5]): 30 µM
